Source: patent publication US20230131899A1, “INHIBITORS OF MICROBIALLY INDUCED AMYLOID” (Axial Therapeutics, Inc., priority 2020, published 2023)
Like-named read-outs stand apart in the source and are kept apart here.

Tested on: CsgA gene expression (csgBAC promoter-GFP reporter) in E. coli UTI89
Test: In vitro live cell fluorescent reporter assay of CsgA transcription (Reporter Assay)
Assay type: cell-based
Settings: Escherichia coli
Method in brief: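 Compounds at 0.14–100 μM (1% DMSO final) incubated 20 h at 27 °C in YESCA broth with UTI89 carrying a single-copy GFP reporter under the csgBAC intergenic promoter region, inoculum OD600 0.003. Fluorescence normalized to vehicle wells gave IC50 and 50%-of-vehicle concentration; OD600 reduction >10% flagged growth impact.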

[1] = read-out: Reporter Assay Abs IC50 (activity range), median Abs IC50 in the CsgA reporter assay, class symbol
[2] = read-out: Reporter Assay Abs IC50 (μM), median Abs IC50 in the CsgA reporter assay, N/A = maximum expression reduction is <50% of control
[3] = read-out: Reporter Assay Abs IC50, activity range, class symbol

Structure (SMILES) | IC50 [1] [µM] | IC50 [2] [µM] | IC50 [3] [µM]
Cn1c(=O)c2c(nc(CCCCN3CC(C(=O)O)n4c(c(-c5cccc(C(F)(F)F)c5)c(Cc5cccc6ccccc56)cc4=O)S3(=O)=O)n2C)n(C)c1=O (stereo not shown) [Compound 044, 8-(naphthalen-1-ylmethyl)-6-oxo-9-(3-(trifluoromethyl)phenyl)-2-(4-(1,3,7-trimethyl-2,6-dioxo-2,3,6,7-tetrahydro-1H-purin-8-yl)butyl)-3,4-dihydro-2H,6H-pyrido[1,2-e][1,2,5]thiadiazine-4-carboxylic acid 1,1-dioxide] | 1.3 to 4.5 | 1.5 | –
Cn1c(=O)c2c(nc(CCCCCN3CC(C(=O)O)n4c(c(-c5cccc(C(F)(F)F)c5)c(Cc5cccc6ccccc56)cc4=O)S3(=O)=O)n2C)n(C)c1=O (stereo not shown) [Compound 045, 8-(naphthalen-1-ylmethyl)-6-oxo-9-(3-(trifluoromethyl)phenyl)-2-(5-(1,3,7-trimethyl-2,6-dioxo-2,3,6,7-tetrahydro-1H-purin-8-yl)pentyl)-3,4-dihydro-2H,6H-pyrido[1,2-e][1,2,5]thiadiazine-4-carboxylic acid 1,1-dioxide] | 1.3 to 4.5 | 1.3 | –
Cn1c(=O)c2c(nc(CCCCCCN3CC(C(=O)O)n4c(c(-c5cccc(C(F)(F)F)c5)c(Cc5cccc6ccccc56)cc4=O)S3(=O)=O)n2C)n(C)c1=O (stereo not shown) [Compound 046, 8-(naphthalen-1-ylmethyl)-6-oxo-9-(3-(trifluoromethyl)phenyl)-2-(6-(1,3,7-trimethyl-2,6-dioxo-2,3,6,7-tetrahydro-1H-purin-8-yl)hexyl)-3,4-dihydro-2H,6H-pyrido[1,2-e][1,2,5]thiadiazine-4-carboxylic acid 1,1-dioxide] | 1.3 to 4.5 | 1.6 | –
Cn1c(=O)c2c(nc(CCCCCCCN3CC(C(=O)O)n4c(c(-c5cccc(C(F)(F)F)c5)c(Cc5cccc6ccccc56)cc4=O)S3(=O)=O)n2C)n(C)c1=O (stereo not shown) [Compound 047, 8-(naphthalen-1-ylmethyl)-6-oxo-9-(3-(trifluoromethyl)phenyl)-2-(7-(1,3,7-trimethyl-2,6-dioxo-2,3,6,7-tetrahydro-1H-purin-8-yl)heptyl)-3,4-dihydro-2H,6H-pyrido[1,2-e][1,2,5]thiadiazine-4-carboxylic acid 1,1-dioxide] | < 1.3 | 0.9 | –
O=C(O)c1c(-c2ccccc2)sc2c(-c3cccc(C(F)(F)F)c3)c(Cc3cccc4ccccc34)cc(=O)n12 [Compound 051, 7-(naphthalen-1-ylmethyl)-5-oxo-2-phenyl-8-(3-(trifluoromethyl)phenyl)-5H-thiazolo[3,2-a]pyridine-3-carboxylic acid] | < 1.3 | 1 | –
O=C(O)C1n2c(c(-c3cccc(C(F)(F)F)c3)c(Cc3cccc4ccccc34)nc2=O)SC12CCCC2 (stereo not shown) [Compound 053, 7′-(naphthalen-1-ylmethyl)-5′-oxo-8′-(3-(trifluoromethyl)phenyl)-3′H,5′H-spiro[cyclopentane-1,2′-thiazolo[3,2-c]pyrimidine]-3′-carboxylic acid] | > 10 | 16.3 | –
O=C(O)C1CSc2c(-c3cccc(C(F)(F)F)c3)c(Cc3cccc4ccccc34)cc(=S)n21 (stereo not shown) [Compound 054, 7-(naphthalen-1-ylmethyl)-5-thioxo-8-(3-(trifluoromethyl)phenyl)-2,3-dihydro-5H-thiazolo[3,2-a]pyridine-3-carboxylic acid] | 4.6 to 10 | 6.3 | –
O=C(O)C1CN(CCCO)S(=O)(=O)c2c(-c3cccc(C(F)(F)F)c3)c(Cc3cccc4ccccc34)cc(=O)n21 (stereo not shown) [Compound 056, 2-(3-hydroxypropyl)-8-(naphthalen-1-ylmethyl)-6-oxo-9-(3-(trifluoromethyl)phenyl)-3,4-dihydro-2H,6H-pyrido[1,2-e][1,2,5]thiadiazine-4-carboxylic acid 1,1-dioxide] | > 10 | 19.8 | –
O=C(O)C1CSc2c(-c3cccc(C(F)(F)F)c3)c(Cc3cccc4ccccc34)c(CO)c(=O)n21 (stereo not shown) [Compound 057, 6-(hydroxymethyl)-7-(naphthalen-1-ylmethyl)-5-oxo-8-(3-(trifluoromethyl)phenyl)-2,3-dihydro-5H-thiazolo[3,2-a]pyridine-3-carboxylic acid] | 4.6 to 10 | 7.1 | –
CC1(C)Sc2c(-c3cccc(C(F)(F)F)c3)c(Cc3cccc4ccccc34)nc(=O)n2C1C(=O)O (stereo not shown) [Compound 059, 2,2-dimethyl-7-(naphthalen-1-ylmethyl)-5-oxo-8-(3-(trifluoromethyl)phenyl)-2,3-dihydro-5H-thiazolo[3,2-c]pyrimidine-3-carboxylic acid] | > 10 | 21.1 | –
O=C(O)c1c(CCc2ccccc2)sc2c(-c3cccc(C(F)(F)F)c3)c(Cc3cccc4ccccc34)cc(=O)n12 [Compound 062, 7-(naphthalen-1-ylmethyl)-5-oxo-2-phenethyl-8-(3-(trifluoromethyl)phenyl)-5H-thiazolo[3,2-a]pyridine-3-carboxylic acid] | < 1.3 | 0.9 | –
O=C(O)C1COc2c(-c3cccc(C(F)(F)F)c3)c(Cc3cccc4ccccc34)cc(=O)n21 (stereo not shown) [Compound 064, 7-(naphthalen-1-ylmethyl)-5-oxo-8-(3-(trifluoromethyl)phenyl)-2,3-dihydro-5H-oxazolo[3,2-a]pyridine-3-carboxylic acid] | > 10 | 45.3 | –
O=C(O)C1CN(C[C@H](O)CO)S(=O)(=O)c2c(-c3cccc(C(F)(F)F)c3)c(Cc3cccc4ccccc34)cc(=O)n21 (stereo partly drawn) [Compound 065a, 2-((S)-2,3-dihydroxypropyl)-8-(naphthalen-1-ylmethyl)-6-oxo-9-(3-(trifluoromethyl)phenyl)-3,4-dihydro-2H,6H-pyrido[1,2-e][1,2,5]thiadiazine-4-carboxylic acid 1,1-dioxide] | > 10 | 24.5 | –
Cc1c(Cc2cccc3ccccc23)c(-c2cccc(C(F)(F)F)c2)c2n(c1=O)C(C(=O)O)CN(C)S2(=O)=O (stereo not shown) [Compound 068, 2,7-dimethyl-8-(naphthalen-1-ylmethyl)-6-oxo-9-(3-(trifluoromethyl)phenyl)-3,4-dihydro-2H,6H-pyrido[1,2-e][1,2,5]thiadiazine-4-carboxylic acid 1,1-dioxide] | > 10 | 11.1 | –
CN1CC(C(=O)O)n2c(c(-c3cccc(C(F)(F)F)c3)c(Cc3cccc4ccccc34)c(NC3CCCC3)c2=O)S1(=O)=O (stereo not shown) [Compound 070, 7-(cyclopentylamino)-2-methyl-8-(naphthalen-1-ylmethyl)-6-oxo-9-(3-(trifluoromethyl)phenyl)-3,4-dihydro-2H,6H-pyrido[1,2-e][1,2,5]thiadiazine-4-carboxylic acid 1,1-dioxide] | 1.3 to 4.5 | 2.3 | –
CN1CC(C(=O)O)n2c(c(-c3cccc(C(F)(F)F)c3)c(Cc3cccc4ccccc34)c(NCc3ccccc3)c2=O)S1(=O)=O (stereo not shown) [Compound 071] | 1.3 to 4.5 | 1.6 | –
O=C(O)C1CSc2c(-c3cccc(C(F)(F)F)c3)c(C(F)(F)c3cccc4ccccc34)cc(=O)n21 (stereo not shown) [Compound 073, 7-(difluoro(naphthalen-1-yl)methyl)-5-oxo-8-(3-(trifluoromethyl)phenyl)-2,3-dihydro-5H-thiazolo[3,2-a]pyridine-3-carboxylic acid] | 4.6 to 10 | 6 | –
CCCN1CC(C(=O)O)n2c(c(-c3cccc(C(F)(F)F)c3)c(C(F)(F)c3cccc4ccccc34)cc2=O)S1(=O)=O (stereo not shown) [Compound 138, 8-(difluoro(naphthalen-1-yl)methyl)-6-oxo-2-propyl-9-(3-(trifluoromethyl)phenyl)-3,4-dihydro-2H,6H-pyrido[1,2-e][1,2,5]thiadiazine-4-carboxylic acid 1,1-dioxide] | – | 2.5 | 1.3 to 4.5
CCc1c(Cc2cccc3ccccc23)c(-c2cccc(C(F)(F)F)c2)c2n(c1=O)C(C(=O)O)CN2Cc1ccccc1 (stereo not shown) [Compound 140, 1-benzyl-6-ethyl-7-(naphthalen-1-ylmethyl)-5-oxo-8-(3-(trifluoromethyl)phenyl)-1,2,3,5-tetrahydroimidazo[1,2-a]pyridine-3-carboxylic acid] | – | 1 | < 1.3
CCCN1CC(C(=O)O)n2c(c(-c3cccc(C(F)(F)F)c3)c(Cc3cccc4ccccc34)c(O)c2=O)S1(=O)=O (stereo not shown) [Compound 141, 7-hydroxy-8-(naphthalen-1-ylmethyl)-6-oxo-2-propyl-9-(3-(trifluoromethyl)phenyl)-3,4-dihydro-2H,6H-pyrido[1,2-e][1,2,5]thiadiazine-4-carboxylic acid 1,1-dioxide] | – | 2.7 | 1.3 to 4.5
CCCN1CC(C(=O)O)n2c(c(-c3cccc(C(F)(F)F)c3)c(Cc3cccc4ccccc34)c(Cl)c2=O)S1(=O)=O (stereo not shown) [Compound 142, 7-chloro-8-(naphthalen-1-ylmethyl)-6-oxo-2-propyl-9-(3-(trifluoromethyl)phenyl)-3,4-dihydro-2H,6H-pyrido[1,2-e][1,2,5]thiadiazine-4-carboxylic acid 1,1-dioxide] | – | 2.3 | 1.3 to 4.5
CCCN1CC(C(=O)O)n2c(c(-c3cccc(C(F)(F)F)c3)c(Cc3cccc4ccccc34)c(OCC)c2=O)S1(=O)=O (stereo not shown) [Compound 143, 7-ethoxy-8-(naphthalen-1-ylmethyl)-6-oxo-2-propyl-9-(3-(trifluoromethyl)phenyl)-3,4-dihydro-2H,6H-pyrido[1,2-e][1,2,5]thiadiazine-4-carboxylic acid 1,1-dioxide] | – | 5.2 | 4.6 to 10
CCCN1CC(C(=O)O)n2c(c(-c3cccc(C(F)(F)F)c3)c(Cc3cccc4ccccc34)c(NC(=O)C(C)C)c2=O)S1(=O)=O (stereo not shown) [Compound 152, 7-isobutyramido-8-(naphthalen-1-ylmethyl)-6-oxo-2-propyl-9-(3-(trifluoromethyl)phenyl)-3,4-dihydro-2H,6H-pyrido[1,2-e][1,2,5]thiadiazine-4-carboxylic acid 1,1-dioxide] | – | 11.4 | > 10
